Several values for one entry are separate records, joined by “and”; a condition that tells them apart may be missing. Identical values can stand only once.
Target: KCNQ2/KCNQ3* (Homo sapiens, UniProt O43525+O43526, A315T)
Assay: Two-electrode voltage clamp of KCNQ2+KCNQ3* in Xenopus oocytes
Format: cell-based
Conditions: Q2/Q3*, individual oocytes
From the text: KCNQ2 and KCNQ3 form a channel complex that carries M currents in neurons. Similar to KCNQ1, these KCNQ subunits require PIP2 for voltage-dependent activation. KCNQ2 alone can express functional channels in Xenopus oocytes, while KCNQ3 alone cannot. However, a single mutation, A315T, allows KCNQ3 to functionally express in Xenopus oocytes. We examined the effects of CP1 on KCNQ2, KCNQ3 with mutation A315T (denoted as KCNQ3*), KCNQ2+KCNQ3, and KCNQ2+KCNQ3* expressed in Xenopus oocytes (Fig. 5a). Similar to the effects on KCNQ1 and IKs channels, CP1 changed the amplitude of currents (Fig. 5b), shifted the G–V relation to more negative voltages (Fig. 5c), and slowed the deactivation kinetics (Fig. 5d) for all of these KCNQ channels. These CP1 effects were relatively small on KCNQ2 as compared with those on other KCNQ channels, and the effects on KCNQ2/KCNQ3* and KCNQ2/KCNQ3 complexes were closer to those on KCNQ2 alone.
Fig. 5 Subtype selectivity of CP1 on KCNQ channels. a Current traces of KCNQ channels as indicated in the absence and the presence of 10 µM CP1. […]
The whole-oocyte ionic currents were recorded with a GeneClamp 500B amplifier (Axon Instruments, CA) or iTEV90 amplifier (HEKA, Germany) and then sampled at 1 kHz and low-pass-filtered at 2 kHz. […] The Kir1.1 current was recorded with a high K^+ bath solution containing (in mM) 96 KCl, 4 NaCl, 1 CaCl2, 2 MgCl2, and 10 HEPES, pH 7.3–7.4. The HCN4 current was recorded in ND66 solution containing (in mM) 66 NaCl, 32 KCl, 1.8 CaCl2, 1 MgCl2, and 5 HEPES, pH 7.6. All the other potassium channels were recorded in ND96 solution. The currents of CaV1.2 channel were recorded in 40 mM Ba^2+ bath solution containing (in mM) 40 Ba(OH)2, 50 TEA-OH, 2 KOH, and 5 HEPES, adjusted to pH 7.4 with methanesulfonic acid. […] The HCN4 currents were recorded by a test pulse between −30 and −140 mV in 10-mV step from a holding potential of −30 mV. […]

- outward current (Icp1/Ictrl) (10 µM CP1, at −10 mV): 1.1575 and 0.9892 and 1.0474 and 1.088
SMILES: O=S(=O)([O-])Oc1c(-c2sc3c(ccc4cccc(Cl)c43)c2OS(=O)(=O)[O-])[nH]c2ccc(Br)cc12.[Na+].[Na+] [CP1, DISODIUM 5-BROMO-2-[9-CHLORO-3-(SULFONATOOXY) NAPHTHO [1,2-B] THIEN-2-YL]-1H-INDOL-3-YL SULFATE]
- ∆V1/2 (10 µM CP1): 15.9435 mV and 15.3238 mV and 21.3532 mV and 15.8237 mV
- τ deact at -120 mV (10 µM CP1 treated): 0.0814 s and 0.0836 s and 0.1825 s and 0.1031 s and 0.1951 s
